# Measured values from patent US11278547B2 (Strongbridge Dublin Limited, priority 2019, dated 2022).
# How the values were obtained:
# OCT2 = target: T1, OCT2 (Homo sapiens, UniProt O15244)
# T1 sequence (O15244 1-555): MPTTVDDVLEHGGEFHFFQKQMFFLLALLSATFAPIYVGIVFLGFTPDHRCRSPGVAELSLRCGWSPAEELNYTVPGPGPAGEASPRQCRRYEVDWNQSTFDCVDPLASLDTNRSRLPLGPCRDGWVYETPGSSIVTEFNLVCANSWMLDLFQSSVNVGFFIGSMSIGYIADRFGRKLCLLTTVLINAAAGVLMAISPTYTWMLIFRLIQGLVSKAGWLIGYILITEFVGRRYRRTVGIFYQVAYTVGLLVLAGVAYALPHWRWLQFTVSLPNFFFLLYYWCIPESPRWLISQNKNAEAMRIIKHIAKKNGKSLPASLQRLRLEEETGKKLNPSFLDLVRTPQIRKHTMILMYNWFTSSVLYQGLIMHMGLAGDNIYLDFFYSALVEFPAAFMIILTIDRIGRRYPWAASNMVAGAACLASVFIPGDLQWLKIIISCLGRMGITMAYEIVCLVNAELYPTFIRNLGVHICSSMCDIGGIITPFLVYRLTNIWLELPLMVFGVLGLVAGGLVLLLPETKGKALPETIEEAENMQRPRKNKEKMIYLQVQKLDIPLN
# MATE1 = target: T2, MATE1 (Homo sapiens, UniProt Q96FL8)
# T2 sequence (Q96FL8 1-570): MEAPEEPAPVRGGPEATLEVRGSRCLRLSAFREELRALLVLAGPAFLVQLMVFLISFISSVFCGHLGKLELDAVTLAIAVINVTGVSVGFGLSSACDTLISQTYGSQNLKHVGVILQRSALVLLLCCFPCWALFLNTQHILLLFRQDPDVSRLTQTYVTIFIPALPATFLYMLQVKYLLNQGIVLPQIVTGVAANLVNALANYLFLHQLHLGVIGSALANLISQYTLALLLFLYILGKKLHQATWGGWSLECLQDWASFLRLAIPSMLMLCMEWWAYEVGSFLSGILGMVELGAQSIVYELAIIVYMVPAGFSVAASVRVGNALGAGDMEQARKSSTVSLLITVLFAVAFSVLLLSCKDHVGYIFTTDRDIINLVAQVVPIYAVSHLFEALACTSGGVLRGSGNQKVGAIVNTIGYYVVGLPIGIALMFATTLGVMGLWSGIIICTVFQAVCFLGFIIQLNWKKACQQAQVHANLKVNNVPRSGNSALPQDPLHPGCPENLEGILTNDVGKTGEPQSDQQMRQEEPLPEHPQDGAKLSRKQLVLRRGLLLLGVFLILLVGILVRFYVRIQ
# [1] = Cushing's syndrome patients, reportedly; cited from earlier work
Structure (SMILES),IC50 (OCT2),IC50 (MATE1),patients in whom hypercortisolism is normalized [1]
"CC(=O)N1CCN(c2ccc(OC[C@@H]3CO[C@@](Cn4ccnc4)(c4ccc(Cl)cc4Cl)O3)cc2)CC1 (relative stereo) [Levoketoconazole, 2S,4R cis-1-acetyl-4-[4-[[2-(2,4-dichlorophenyl)-2-(1H-imidazol-1-ylmethyl)-1,3-dioxolan-4-yl]methoxyl]phenyl]piperazine]",218 nM,248 nM,–
"CC(=O)N1CCN(c2ccc(OCC3COC(Cn4ccnc4)(c4ccc(Cl)cc4Cl)O3)cc2)CC1 (racemic) [Ketoconazole, ketoconazole]",1520 nM,279 nM,30-70%
